In BindingDB's records for doi:10.1016/j.bmcl.2006.08.044 (Glaxosmithkline, 2006):

Molecular target: Integrin alpha-4/beta-1 [T112H] (Homo sapiens, UniProt P05556+P13612, T112H)
Experiment: Jurkat J6 Scintillation Proximity Assay
Procedure: J6 cells (1 million cells/well) were allowed to coat wheat germ agglutinin coated SPA beads (Amersham, 1 mg/well) in assay buffer. Tritiated 3H Standard Compound A and test compounds were dissolved in an appropriate solvent and diluted in assay buffer. Data are presented as mean pKi.

SMILES	Ki
Cc1ccccc1NC(=O)Nc1ccc(-c2cccn(Cc3ccc([C@@H](C)CC(=O)O)cc3)c2=O)c(Cl)c1 [(3S)-3-(4-{[3-(2-chloro-4-{[(2-methylphenyl)carbamoyl]amino}phenyl)-2-oxo-1,2-dihydropyridin-1-yl]methyl}phenyl)butanoic acid]	25.1 nM
Cc1ccccc1NC(=O)Nc1ccc(-c2cccn(Cc3ccc([C@H](C)CC(=O)O)cc3)c2=O)cc1Cl [(3R)-3-(4-{[3-(3-chloro-4-{[(2-methylphenyl)carbamoyl]amino}phenyl)-2-oxo-1,2-dihydropyridin-1-yl]methyl}phenyl)butanoic acid]	1 nM
Cc1ccccc1NC(=O)Nc1ccc(-c2cccn(Cc3ccc([C@H](C)CC(=O)O)cc3)c2=O)cc1C [(3R)-3-(4-{[3-(3-methyl-4-{[(2-methylphenyl)carbamoyl]amino}phenyl)-2-oxo-1,2-dihydropyridin-1-yl]methyl}phenyl)butanoic acid]	1 nM
Cc1ccccc1NC(=O)Nc1ccc(-c2cccn(Cc3ccc([C@@H](C)CC(=O)O)cc3)c2=O)cc1OC(F)(F)F [(3S)-3-(4-{[3-(4-{[(2-methylphenyl)carbamoyl]amino}-3-(trifluoromethoxy)phenyl)-2-oxo-1,2-dihydropyridin-1-yl]methyl}phenyl)butanoic acid]	19.9 nM
Cc1ccccc1NC(=O)Nc1ccc(-c2cccn(Cc3ccc([C@H](C)CC(=O)O)cc3)c2=O)c(C)c1 [(3R)-3-(4-{[3-(2-methyl-4-{[(2-methylphenyl)carbamoyl]amino}phenyl)-2-oxo-1,2-dihydropyridin-1-yl]methyl}phenyl)butanoic acid]	2.51 nM
CCc1cc(-c2cccn(Cc3ccc([C@@H](C)CC(=O)O)cc3)c2=O)ccc1NC(=O)Nc1ccccc1C [(3S)-3-(4-{[3-(3-ethyl-4-{[(2-methylphenyl)carbamoyl]amino}phenyl)-2-oxo-1,2-dihydropyridin-1-yl]methyl}phenyl)butanoic acid]	50.1 nM
CCc1cc(-c2cccn(Cc3ccc([C@H](C)CC(=O)O)cc3)c2=O)ccc1NC(=O)Nc1ccccc1C [(3R)-3-(4-{[3-(3-ethyl-4-{[(2-methylphenyl)carbamoyl]amino}phenyl)-2-oxo-1,2-dihydropyridin-1-yl]methyl}phenyl)butanoic acid]	6.31 nM
Cc1ccccc1NC(=O)Nc1ccc(-c2cccn(Cc3ccc([C@@H](C)CC(=O)O)cc3)c2=O)cc1Cl [(3S)-3-(4-{[3-(3-chloro-4-{[(2-methylphenyl)carbamoyl]amino}phenyl)-2-oxo-1,2-dihydropyridin-1-yl]methyl}phenyl)butanoic acid]	2 nM
Cc1ccccc1NC(=O)Nc1ccc(-c2cccn(Cc3ccc([C@@H](C)CC(=O)O)cc3)c2=O)cc1C [(3S)-3-(4-{[3-(3-methyl-4-{[(2-methylphenyl)carbamoyl]amino}phenyl)-2-oxo-1,2-dihydropyridin-1-yl]methyl}phenyl)butanoic acid]	2.51 nM
Cc1ccccc1NC(=O)Nc1ccc(-c2cccn(Cc3ccc([C@H](C)CC(=O)O)cc3)c2=O)c(Cl)c1 [(3R)-3-(4-{[3-(2-chloro-4-{[(2-methylphenyl)carbamoyl]amino}phenyl)-2-oxo-1,2-dihydropyridin-1-yl]methyl}phenyl)butanoic acid]	0.79 nM
CCOc1cc(-c2cccn(Cc3ccc([C@@H](C)CC(=O)O)cc3)c2=O)ccc1NC(=O)Nc1ccccc1C [(3S)-3-(4-{[3-(3-ethoxy-4-{[(2-methylphenyl)carbamoyl]amino}phenyl)-2-oxo-1,2-dihydropyridin-1-yl]methyl}phenyl)butanoic acid]	5.01 nM
Cc1ccccc1NC(=O)Nc1ccc(-c2cccn(Cc3ccc([C@@H](C)CC(=O)O)cc3)c2=O)c(C)c1 [(3S)-3-(4-{[3-(2-methyl-4-{[(2-methylphenyl)carbamoyl]amino}phenyl)-2-oxo-1,2-dihydropyridin-1-yl]methyl}phenyl)butanoic acid]	19.9 nM
Cc1ccccc1NC(=O)Nc1ccc(-c2cccn(Cc3ccc([C@H](C)CC(=O)O)cc3)c2=O)cc1OC(F)(F)F [(3R)-3-(4-{[3-(4-{[(2-methylphenyl)carbamoyl]amino}-3-(trifluoromethoxy)phenyl)-2-oxo-1,2-dihydropyridin-1-yl]methyl}phenyl)butanoic acid]	3.98 nM
CCOc1cc(-c2cccn(Cc3ccc([C@H](C)CC(=O)O)cc3)c2=O)ccc1NC(=O)Nc1ccccc1C [(3R)-3-(4-{[3-(3-ethoxy-4-{[(2-methylphenyl)carbamoyl]amino}phenyl)-2-oxo-1,2-dihydropyridin-1-yl]methyl}phenyl)butanoic acid]	2 nM
